In this assay the target is T1, BTV VP1 (his-tagged VP1) (Bluetongue virus (serotype 10 / American isolate), UniProt P13840).
T1 construct: gene Segment-1; tag cleavage not mentioned
The experiment in a line: in vitro polymerase assay, [α-32P]CTP incorporation into dsRNA, native PAGE. The following applies: 20 pmol in 50 µl, uncapped T7 S9 ssRNA template, Mg2+, Mn2+, pH 7.4, 37 °C, 5 h. In kind it is biochemical.

T1 sequence (P13840 whole entry): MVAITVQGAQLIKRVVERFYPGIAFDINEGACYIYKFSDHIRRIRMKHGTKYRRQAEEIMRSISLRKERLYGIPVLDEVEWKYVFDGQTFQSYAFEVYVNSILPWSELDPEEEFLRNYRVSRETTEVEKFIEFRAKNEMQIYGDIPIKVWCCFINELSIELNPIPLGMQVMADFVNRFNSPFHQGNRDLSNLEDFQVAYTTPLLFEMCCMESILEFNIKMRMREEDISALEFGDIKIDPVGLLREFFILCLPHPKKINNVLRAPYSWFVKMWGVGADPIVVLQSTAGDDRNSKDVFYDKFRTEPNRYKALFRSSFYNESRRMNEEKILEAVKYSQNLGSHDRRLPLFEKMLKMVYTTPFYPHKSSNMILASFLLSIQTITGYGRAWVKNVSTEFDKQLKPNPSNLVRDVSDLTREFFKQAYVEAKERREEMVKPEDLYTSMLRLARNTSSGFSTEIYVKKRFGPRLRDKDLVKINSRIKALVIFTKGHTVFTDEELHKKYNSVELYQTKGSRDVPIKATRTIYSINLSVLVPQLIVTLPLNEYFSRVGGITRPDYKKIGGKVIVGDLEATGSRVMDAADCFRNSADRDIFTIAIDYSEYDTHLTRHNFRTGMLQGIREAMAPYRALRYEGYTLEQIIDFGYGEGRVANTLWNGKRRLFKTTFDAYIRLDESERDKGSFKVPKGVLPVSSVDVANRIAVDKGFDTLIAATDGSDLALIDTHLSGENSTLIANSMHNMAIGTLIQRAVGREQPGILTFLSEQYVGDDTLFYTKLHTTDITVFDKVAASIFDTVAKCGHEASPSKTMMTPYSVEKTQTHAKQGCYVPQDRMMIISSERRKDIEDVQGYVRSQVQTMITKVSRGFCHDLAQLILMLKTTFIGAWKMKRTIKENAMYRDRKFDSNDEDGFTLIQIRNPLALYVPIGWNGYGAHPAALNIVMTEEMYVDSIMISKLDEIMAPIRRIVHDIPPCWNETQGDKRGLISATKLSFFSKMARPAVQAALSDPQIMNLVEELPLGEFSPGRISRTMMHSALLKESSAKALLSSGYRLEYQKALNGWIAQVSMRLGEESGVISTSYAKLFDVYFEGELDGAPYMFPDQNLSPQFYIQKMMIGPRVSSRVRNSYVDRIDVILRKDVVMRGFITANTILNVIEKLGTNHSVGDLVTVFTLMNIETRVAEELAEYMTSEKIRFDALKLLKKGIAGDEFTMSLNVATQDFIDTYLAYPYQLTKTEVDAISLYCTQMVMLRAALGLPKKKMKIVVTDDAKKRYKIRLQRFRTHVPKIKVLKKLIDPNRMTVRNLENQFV

On to `CO[C@H]1[C@@H](O)[C@H](n2c[n+](C)c3c(=O)[nH]c(N)nc32)O[C@@H]1COP(=O)(O)OP(=O)(O)OP(=O)(O)OC[C@H]1O[C@@H](n2cnc3c(=O)[nH]c(N)nc32)[C@H](O)[C@@H]1O` [ARCA, 3′-O-methyl-m7GpppG], for which, under “activator, allosteric proposed”, the fold of control result was “dsRNA synthesis from both capped and uncapped T7 S9 ssRNA was enhanced”. Regarding `Nc1nc2c(ncn2[C@@H]2O[C@H](COP(=O)(O)O[C@H]3[C@@H](O)[C@H](n4cnc5c(N)ncnc54)O[C@@H]3CO)[C@@H](O)[C@H]2O)c(=O)[nH]1` [ApG], under “priming dinucleotide”, the fold of control entry is “GpG and ApG, which complement only the last nucleotide”.

As for `Nc1nc2c(ncn2[C@@H]2O[C@H](COP(=O)(O)O[C@H]3[C@@H](O)[C@H](n4cnc5c(=O)[nH]c(N)nc54)O[C@@H]3CO)[C@@H](O)[C@H]2O)c(=O)[nH]1` [GpG], the fold of control entry (priming dinucleotide, additional allosteric effect proposed) is “GpG and ApG, which complement only the last nucleotide”. In the case of `Nc1nc2c(ncn2[C@@H]2O[C@H](COP(=O)(O)OP(=O)(O)OP(=O)(O)OC[C@H]3O[C@@H](n4cnc5c(N)ncnc54)[C@H](O)[C@@H]3O)[C@@H](O)[C@H]2O)c(=O)[nH]1` [GpppA], where the note is “activator, allosteric proposed”, the fold of control entry was “dsRNA synthesis from both capped and uncapped T7 S9 ssRNA was enhanced”. On the same count and under the same terms, the result for `Nc1nc2c(ncn2[C@@H]2O[C@H](COP(=O)(O)OP(=O)(O)OP(=O)(O)OC[C@H]3O[C@@H](n4cnc5c(=O)[nH]c(N)nc54)[C@H](O)[C@@H]3O)[C@@H](O)[C@H]2O)c(=O)[nH]1` [GpppG] reads “enhanced by the addition of all cap analogues, with GpppG showing the greatest enhancement”; that for `C[n+]1cn([C@@H]2O[C@H](COP(=O)(O)OP(=O)(O)OP(=O)(O)OC[C@H]3O[C@@H](n4cnc5c(=O)[nH]c(N)nc54)[C@H](O)[C@@H]3O)[C@@H](O)[C@H]2O)c2nc(N)[nH]c(=O)c21` [m7GpppG], “dsRNA synthesis from both capped and uncapped T7 S9 ssRNA was enhanced”.
